Measurements from patent publication US8796246B2, “9, 10-secopregnane derivative and pharmaceutical” (Nippon Shinyaku Co., Ltd., priority 2006, dated 2014).

What was measured:
[1] = Metabolic rate in human liver microsome; assay type: in vitro ADME; conditions: pooled human liver microsome 1 mg/mL protein, NADPH-regenerating system, 37° C., 2-60 minutes, HPLC
Procedure: The compounds of the invention mentioned in Examples and maxacalcitol were compared with each other with respect to the metabolic rate in human liver microsome.
As to the pooled human liver microsome (HHM-0323), those manufactured by Tissue Transformation Technologies were used. A 0.25 M potassium phosphate buffer (pH 7.4) (200 μL), 5 μL of a 250 μM solution of each compound to be tested in DMSO, 50 μL of an NADPH-regenerating system (where 20 mg of β-NADP^+, 70 mg of glucose-6-phosphate, 40 units of glucose-6-phosphate dehydrogenase and 20 mg of magnesium chloride were dissolved in 1 mL of distilled water) and 220 μL of distilled water were added to a microtube and the mixture was subjected to a preincubation for 5 minutes at 37° C. Reaction was started by an addition of 25 μL of human liver microsome (final concentration of protein: 1 mg/mL). Incubation was performed for 2, 10, 30 or 60 minutes and the reaction was stopped by an addition of 500 μL of acetonitrile. After centrifugation at 13,000 rpm for 5 minutes, each test compound in the supernatant (25 μL) was measured by HPLC under the following conditions.
Inertsil ODS-3 (4.6×150 mm; GL Science) was used as a column. With regard to the mobile phase, a solution A (acetonitrile/0.1% aqueous solution of ammonium acetate=10/90) and a solution B (acetonitrile/0.1% aqueous solution of ammonium acetate=90/10) were used under the linear gradient conditions mentioned in Tables 5 to 7. The column temperature, the flow rate and the wavelength for detection were set at 40° C., 1.0 mL/min. and UV 250 or 270 nm, respectively.
The compound mentioned in Example 38 was analyzed under the condition shown in Table 6; the compounds mentioned in Examples 55, 56, 68, 69, 72 and 73 were under the condition shown in Table 7; and the other compounds were under the condition shown in Table 5.
The compounds described in Examples 40, 43 to 48, 50, 55, 56, 58, 60, 61, 63 and 65 to 73 were analyzed under the condition of UV 250 nm; and the other compounds were under the condition of UV 270 nm.
From the HPLC test results as above, the metabolic rate of the test compound was calculated.

[2] = system: human acute myelogenous leukemia cell line HL-60; assay: Ability to induce differentiation of HL-60 cells (oxygen radical production after phorbol ester, WST-1); assay type: cell-based; conditions: 72 hours incubation, then WST-1 and phorbol 12,13-didecanoate for 4 hours, absorbance at 450 nm
Excerpt: It is known that the human acute myelogenous leukemia cell line HL-60is differentiated into neutrophil-like cells by active vitamin D or the like. Thus, the cells after the differentiation begin to express a surface marker such as CD11and CD32and, at the same time, they produce an oxygen radical by stimulation with a phorbol ester or the like. In this test, the above-mentioned property was utilized. As an index of the ability to induce differentiation of the HL-60cells, the amount of the oxygen radical produced by stimulation with a phorbol ester was measured, and the compounds of the invention mentioned in Examples were compared with maxacalcitol with respect to the vitamin D3activity thereof. In use of commercial reagents and kits, if any, the indications attached thereto were referred to.
HL-60cells (supplied from ATCC) were seeded on a 96-well plate at 5×10^3cells/100μL/well and a test compound in two-fold dilution series from 10^−7M was added to the second to the twelfth rows (maximum concentration: the second row). The first row was used for blank. After incubation for 72 hours under a moisturized condition in the presence of 5% CO2 at 37° C. using a CO2 incubator, 10 μL of PBS containing 50 mM WST-1 (manufactured by Takara Bio) and 10 μM phorbol 12,13-didecanoate (manufactured by SIGMA) were added to each well followed by further incubation for 4 hours. Absorbance (reference wavelength: […]) at […] of the WST-1 formazane dye generated by conversion from WST-1 by oxygen radical produced from the differentiated HL-60 cells was measured by a Benchmark microplate reader (manufactured by BioRad). An absorbance meter control software MPM3 (manufactured by BioRad) was used and, from a concentration-absorbance curve, the 50%-maximal effective concentration (hereinafter, referred to as “EC50”) of each was determined by a logistic curve regression.

[3] = Action to increase the urinary excretion of calcium (1), percutaneous administration; assay type: in vivo, SD male rats; conditions: percutaneous 10 μg/200 μL/kg/day once a day for 4 days; for Calcium in Urine within 24 hours: accumulated excretion 0 to 24 hours; for Calcium in Urine within 48 hours: accumulated excretion 0 to 48 hours; for Calcium in Urine within 72 hours: accumulated excretion 0 to 72 hours; for Calcium in Urine within 96 hours: accumulated excretion 0 to 96 hours
Procedure: The compound of the invention mentioned in Example 1, 36, 43, 47, 48, 55 or 70 or maxacalcitol in ethanol containing 0.5% DMSO was repeatedly subjected to a percutaneous administration (10 μg/200 μL/kg/day) once a day for 4 days onto the back of SD male rats (7 weeks of age). Ethanol containing 0.5% DMSO was administered to a control group. The calcium concentration in urine collected every 24 hours was measured and multiplied by the amount of urine to calculate the urinary excretion of calcium. The calcium excretion in urine shown in Table 3 indicates the accumulated calcium excretion from 0 to 24 hours, from 0 to 48 hours, from 0 to 72 hours, and from 0 to 96 hours.

Row | Compound | Metabolic Rate [1] | EC50 [2] | Calcium in Urine within 24 hours [3] | Calcium in Urine within 48 hours [3] | Calcium in Urine within 72 hours [3] | Calcium in Urine within 96 hours [3]
1 | CC(OC(=O)CCC(C)(O)C(F)(F)F)C1CCC2C(=CC=C3CC(O)CC(O)C3)CCCC21C [Compound of Example 43, (1R,3R,20S)-19-nor-20-(5,5,5-trifluoro-4-hydroxy-4-methylpentanoyloxy)-9,10-secopregna-5Z,7E-diene-1,3-diol] | 74 pmol/min/mg | 0.45 nM | 1.2 mg | 1.9 mg | 3.3 mg | 4.6 mg
2 | C=C1[C@H](O)CC(=C/C=C2\CCC[C@]3(C)C([C@H](C)OC(=O)CCC(C)(C)O)=CC[C@@H]23)C[C@H]1O [Compound of Example 48, (1R,3R,20S)-19-nor-2-methylene-20-(4-hydroxy-4-methylpentanoyloxy)-9,10-secopregna-5Z,7E,16-triene-1,3-diol] | 69 pmol/min/mg | 0.21 nM | 1.1 mg | 1.9 mg | 3.5 mg | 5.2 mg
3 | CCC(O)(C=CC(=O)OC(C)C1CCC2C(=CC=C3CC(O)C(C)C(O)C3)CCCC21C)CC [Compound of Example 65, (1R,2α,3R,20S)-2-methyl-19-nor-20-[(2E)-4-ethyl-4-hydroxyhex-2-enoyloxy]-9,10-secopregna-5Z,7E-diene-1,3-diol] | 29 pmol/min/mg | 0.29 nM |  |  |  | 
4 | CC(OC(=O)CCC(C)(O)C(F)(F)F)C1=CCC2C(=CC=C3CC(O)CC(O)C3)CCCC12C [Compound of Example 68, (1R,3R,20S)-19-nor-20-[(4S)-5,5,5-trifluoro-4-hydroxy-4-methylpentanoyloxy]-9,10-secopregna-5Z,7E,16-triene-1,3-diol] | 126 pmol/min/mg | 0.23 nM |  |  |  | 
5 | CC(OC(=O)CCC(C)(O)C(F)(F)F)C1CCC2C(=CC=C3CC(O)CC(O)C3)CCCC21C [Compound of Example 73, (1R,3R,20S)-19-nor-20-[(4R)-5,5,5-trifluoro-4-hydroxy-4-methylpentanoyloxy]-9,10-secopregna-5Z,7E-diene-1,3-diol] | 63 pmol/min/mg | 1.3 nM |  |  |  | 

Continued by falling EC50 [2], values first:

Row | Metabolic Rate [1] | EC50 [2] | Calcium in Urine within 24 hours [3] | Calcium in Urine within 48 hours [3] | Calcium in Urine within 72 hours [3] | Calcium in Urine within 96 hours [3] | Compound
6 | 86 pmol/min/mg | 0.77 nM |  |  |  |  | C[C@H](OC(=O)CC[C@@](C)(O)C(F)(F)F)C1=CC[C@H]2/C(=C/C=C3C[C@@H](O)C[C@H](O)C3)CCC[C@]12C [Compound of Example 69, (1R,3R,20S)-19-nor-20-[(4R)-5,5,5-trifluoro-4-hydroxy-4-methylpentanoyloxy]-9,10-secopregna-5Z,7E,16-triene-1,3-diol]
7 | 95 pmol/min/mg | 0.63 nM | 1.2 mg | 1.8 mg | 2.7 mg | 3.7 mg | CC(OC(=O)CCC(C)(O)C(F)(F)F)C1=CCC2C(=CC=C3CC(O)CC(O)C3)CCCC12C [Compound of Example 47, (1R,3R,20S)-19-nor-20-(5,5,5-trifluoro-4-hydroxy-4-methylpentanoyloxy)-9,10-secopregna-5Z,7E,16-triene-1,3-diol]
8 | 82 pmol/min/mg | 0.41 nM | 1.0 mg | 1.7 mg | 2.8 mg | 4.5 mg | (1S,3R,20S)-20-[(4S) or (4R)-5,5,5-trifluoro-4-hydroxy-4-methylpentanoyloxy]-9,10-secopregna-5Z,7E,10(19)-triene-1,3-diol [Compound of Example 36]
9 | 24 pmol/min/mg | 0.23 nM |  |  |  |  | CC(OC(=O)CCC(C)(C)O)C1=CCC2C(=CC=C3CC(O)C(C)C(O)C3)CCCC12C [Compound of Example 62, (1R,2α,3R,20S)-19-nor-2-methyl-20-(4-hydroxy-4-methylpentanoyloxy)-9,10-secopregna-5Z,7E,16-triene-1,3-diol]
10 | 111 pmol/min/mg | 0.17 nM |  |  |  |  | CC(OC(=O)CCC(C)(O)C(F)(F)F)C1CCC2C(=CC=C3CC(O)CC(O)C3)CCCC21C [Compound of Example 72, (1R,3R,20S)-19-nor-20-[(4S)-5,5,5-trifluoro-4-hydroxy-4-methylpentanoyloxy]-9,10-secopregna-5Z,7E-diene-1,3-diol]
11 | 128 pmol/min/mg | 0.15 nM | 1.1 mg | 2.0 mg | 3.4 mg | 4.8 mg | C=C1[C@H](O)CC(=C/C=C2\CCC[C@]3(C)C([C@H](C)OC(=O)CC[C@](C)(O)C(F)(F)F)=CC[C@@H]23)C[C@H]1O [Compound of Example 55, (1R,3R,20S)-19-nor-2-methylene-20-[(4S)-5,5,5-trifluoro-4-hydroxy-4-methylpentanoyloxy]-9,10-secopregna-5Z,7E,16-triene-1,3-diol]
12 | 38 pmol/min/mg | 0.15 nM |  |  |  |  | CCC(O)(CC)CCC(=O)OC(C)C1CCC2C(=CC=C3CC(O)C(C)C(O)C3)CCCC21C [Compound of Example 67, (1R,2α,3R,20S) -2-methyl-19-nor-20-[4-ethyl-4-hydroxyhexanoyloxy]-9,10-secopregna-5Z,7E-diene-1,3-diol]
13 | 60 pmol/min/mg | 0.13 nM | 1.4 mg | 1.9 mg | 2.7 mg | 3.7 mg | C=C1/C(=C\C=C2/CCC[C@]3(C)C([C@H](C)OC(=O)CCC(C)(O)C(F)(F)F)=CC[C@@H]23)C[C@@H](O)C[C@@H]1O (single isomer, unassigned) [Compound of Example 70, (1S,3R,20S)-20-[(4R) or (4S)-5,5,5-trifluoro-4-hydroxy-4-methylpentanoyloxy]-9,10-secopregna-5Z,7E,10(19),16-tetraene-1,3-diol]
